Assays:
Conditions in all cases: 72 h
U2OS [1] = experiment: cell viability relative to DMSO; higher = less toxic
Vero E6 [2] = experiment: as above
Caco-2 [3] = experiment: as above
HepG2 [4] = experiment: as above
Calu-3 [5] = experiment: as above
U2OS [6] = experiment: relative viability EC50 (midpoint between 100% and the lowest measured viability); higher = less toxic
Vero E6 [7] = experiment: as above
Caco-2 [8] = experiment: as above
HepG2 [9] = experiment: as above
Calu-3 [10] = experiment: as above
U2OS [11] = experiment: drug sensitivity score (DSS) for viability; higher = more toxic; extreme values may be limits of the assay
Vero E6 [12] = experiment: as above
Caco-2 [13] = experiment: as above
HepG2 [14] = experiment: as above
Calu-3 [15] = experiment: as above

Structure (SMILES) | cell viability (U2OS [1]; 1 nM) | cell viability (U2OS [1]; 10 nM) | cell viability (U2OS [1]; 100 nM) | cell viability (U2OS [1]; 1000 nM) | cell viability (U2OS [1]; 10000 nM) | cell viability (Vero E6 [2]; 1 nM) | cell viability (Vero E6 [2]; 10 nM) | cell viability (Vero E6 [2]; 100 nM) | cell viability (Vero E6 [2]; 1000 nM) | cell viability (Vero E6 [2]; 10000 nM) | cell viability (Caco-2 [3]; 1 nM) | cell viability (Caco-2 [3]; 10 nM) | cell viability (Caco-2 [3]; 100 nM) | cell viability (Caco-2 [3]; 1000 nM) | cell viability (Caco-2 [3]; 10000 nM) | cell viability (HepG2 [4]; 1 nM) | cell viability (HepG2 [4]; 10 nM) | cell viability (HepG2 [4]; 100 nM) | cell viability (HepG2 [4]; 1000 nM) | cell viability (HepG2 [4]; 10000 nM) | cell viability (Calu-3 [5]; 1 nM) | cell viability (Calu-3 [5]; 10 nM) | cell viability (Calu-3 [5]; 100 nM) | cell viability (Calu-3 [5]; 1000 nM) | cell viability (Calu-3 [5]; 10000 nM) | relative viability EC50 (U2OS [6]) | relative viability EC50 (Vero E6 [7]) | relative viability EC50 (Caco-2 [8]) | relative viability EC50 (HepG2 [9]) | relative viability EC50 (Calu-3 [10]) | drug sensitivity score (U2OS [11]) | drug sensitivity score (Vero E6 [12]) | drug sensitivity score (Caco-2 [13]) | drug sensitivity score (HepG2 [14]) | drug sensitivity score (Calu-3 [15])
CCCCCCCCCCC(CO)CCCCCCCC (stereo not given) [2-octyldodecan-1-ol] | 96.6% | 98% | 97.3% | 101% | 95.9% | 98.4% | 97.3% | 97.4% | 93.5% | 99.7% | 96.1% | 103% | 98.9% | 93.1% | 98.2% | 96.8% | 95.8% | 102% | 102% | 98.3% | 98.5% | 88.2% | 98.2% | 100% | 102% | > 10 µM | > 10 µM | > 10 µM | > 10 µM | > 10 µM | 0 | 0 | 0 | 0 | 0
OCCCNc1ccccc1 [3-anilinopropan-1-ol] | 99.6% | 106% | 97.8% | 102% | 98.7% | 100% | 96.1% | 107% | 94.4% | 97.9% | 101% | 91.8% | 93.7% | 93.3% | 95.3% | 103% | 101% | 95.6% | 103% | 94.9% | 106% | 104% | 99.6% | 97% | 115% | > 10 µM | > 10 µM | > 10 µM | > 10 µM | > 10 µM | 0 | 0 | 0 | 0 | 0
O=C(O)CCCc1c[nH]c2ccccc12 [3-indolebutyric-acid] | 102% | 102% | 101% | 95% | 99.9% | 102% | 101% | 101% | 97.2% | 94.2% | 99.4% | 88.5% | 89.6% | 92.5% | 91.7% | 98.3% | 99.4% | 92.8% | 87.9% | 101% | 99.6% | 100% | 97.7% | 100% | 99.3% | > 10 µM | > 10 µM | > 10 µM | > 10 µM | > 10 µM | 0 | 0 | 1.2 | 0 | 0
CC(=O)N1CC[N+](C)(C)CC1 [4-acetyl-1,1-dimethylpiperazinium] | 101% | 100% | 97.5% | 102% | 95% | 100% | 111% | 106% | 96.8% | 101% | 100% | 100% | 98.7% | 98.2% | 97.9% | 93.6% | 109% | 111% | 97.9% | 91.2% | 102% | 101% | 97% | 102% | 88.6% | > 10 µM | > 10 µM | > 10 µM | > 10 µM | > 10 µM | 0 | 0 | 0 | 0 | 0
CCCc1ccc(C(=O)O)cc1 [4-propylbenzoic-acid] | 98.5% | 94.9% | 99.8% | 98.9% | 102% | 93.2% | 97.4% | 91.9% | 92.2% | 103% | 96.6% | 96.4% | 105% | 89.7% | 106% | 106% | 106% | 93.7% | 104% | 98.3% | 106% | 106% | 101% | 96.4% | 97.2% | > 10 µM | > 10 µM | > 10 µM | > 10 µM | > 10 µM | 0 | 0 | 0 | 0 | 0
CCCN(CCC)[C@H]1CCc2cccc(O)c2C1 [8-hydroxy-DPAT] | 96.9% | 98% | 99.1% | 102% | 99.9% | 97% | 94.5% | 99.2% | 89.3% | 104% | 101% | 101% | 98% | 98.8% | 101% | 102% | 102% | 93.6% | 109% | 92.2% | 99.2% | 105% | 97.4% | 101% | 102% | > 10 µM | > 10 µM | > 10 µM | > 10 µM | > 10 µM | 0 | 0 | 0 | 0 | 0
NCCCCCCCCCCNS(=O)(=O)c1cccc2c(Cl)cccc12 [A-7] | 99.2% | 106% | 97.4% | 99.8% | 93.9% | 97.3% | 98.4% | 95.2% | 101% | 94.7% | 108% | 95.5% | 107% | 99.7% | 97.3% | 112% | 102% | 98.6% | 108% | 95.8% | 97.8% | 98.8% | 96.5% | 95.9% | 95.1% | > 10 µM | > 10 µM | > 10 µM | > 10 µM | > 10 µM | 0 | 0 | 0 | 0 | 0
N[C@@H]1CCN(c2cccnc2)C1 [ABT-202] | 96.1% | 98.8% | 96.1% | 102% | 103% | 102% | 97.4% | 104% | 94.5% | 108% | 101% | 102% | 96% | 95.7% | 106% | 97.8% | 99% | 104% | 105% | 109% | 93.1% | 90.3% | 99.8% | 97.5% | 99.3% | > 10 µM | > 10 µM | > 10 µM | > 10 µM | > 10 µM | 0 | 0 | 0 | 0 | 0
O=C1COc2c(CCNCCN(C(=O)CCNCCc3ccc(Cl)c(Cl)c3)C3CCCCC3)ccc(O)c2N1 [AZ505] | 102% | 101% | 99.2% | 103% | 91.2% | 107% | 99.4% | 104% | 99.7% | 109% | 104% | 98.4% | 95.8% | 97.8% | 97.9% | 95.9% | 98.6% | 118% | 97.2% | 89.4% | 88.2% | 89.6% | 108% | 102% | 105% | > 10 µM | > 10 µM | > 10 µM | > 10 µM | > 10 µM | 0 | 0 | 0 | 0 | 0
CN(CCc1ccc(Cl)c(Cl)c1)CCN1CCCC1 [BD-1008] | 97.4% | 96.5% | 97% | 93.2% | 93.3% | 100% | 96.2% | 94.2% | 95% | 106% | 101% | 96.7% | 95.5% | 93.8% | 94.2% | 91.5% | 107% | 104% | 117% | 106% | 95.8% | 98.5% | 94.6% | 96.9% | 101% | > 10 µM | > 10 µM | > 10 µM | > 10 µM | > 10 µM | 0 | 0 | 0 | 0 | 0
O=C(O)c1cc2ccccc2s1 [BL-5583] | 103% | 105% | 100% | 100% | 98% | 102% | 95.7% | 97.5% | 101% | 93% | 97.7% | 107% | 102% | 102% | 100% | 112% | 109% | 97.4% | 98.8% | 110% | 98% | 106% | 106% | 98.7% | 141% | > 10 µM | > 10 µM | > 10 µM | > 10 µM | > 10 µM | 0 | 0 | 0 | 0 | 0
CNC(=O)c1ccc2c(c1)S(=O)(=O)c1ccccc1C2=O [BW-616U] | 99.1% | 95% | 100% | 99.4% | 98.9% | 95.2% | 95.9% | 98.1% | 109% | 106% | 96.6% | 108% | 111% | 92.4% | 99.4% | 109% | 106% | 92.7% | 110% | 104% | 115% | 104% | 102% | 100% | 96.7% | > 10 µM | > 10 µM | > 10 µM | > 10 µM | > 10 µM | 0 | 0 | 0 | 0 | 0
CCCCCn1cc(C(=O)NC23CC4CC(CC(C4)C2)C3)c(=O)c2cc(-c3ccccc3)ccc21 [COR-170] | 96.2% | 99.9% | 98.3% | 94.7% | 99.9% | 100% | 97.7% | 103% | 106% | 94.8% | 90.9% | 103% | 100% | 100% | 98.3% | 103% | 93.6% | 91% | 105% | 92.1% | 105% | 89.2% | 104% | 98.2% | 97% | > 10 µM | > 10 µM | > 10 µM | > 10 µM | > 10 µM | 0 | 0 | 0 | 0 | 0
